The values that follow come from patent US20230321063A1, “COMPOSITIONS AND METHODS TO REDUCE NEUROINFLAMMATION” (Seattle Children's Hospital d/b/a Seattle Children's …, priority 2020, published 2023).

Entries after “also recorded” stand apart in the source; their conditions may differ.

Common to all, as to format: in vivo, mouse
In series [1] the test system is CNS lesions in Ndufs4(KO) mice. The series can be described thus: Brain immunological staining: brainstem and cerebellar CNS lesions. To be noted: 300 mg/kg/day. How it is done:
Brain immunological staining and microscopy. Brains were fixed for 48 hours in 10% formalin at 4° C. Following fixation, brains were moved to a cryoprotectant solution (30% sucrose, 1% DMSO, 100 μM glycine, 1×PBS, 0.45 μm filtered, pH 7.5), and stored for over 48 hours, until the fixed tissues sank to the bottom. Tissues were then placed in OCT media (Tissue-Tek OCT compound, Sakura 0004348-01), frozen in cryoblock holders on dry ice, and stored at −80° C. until sectioned for staining. Cryoblocks were cut at 50 μm thickness using a Leica CM30505 cryostat set at −40° C. Slices were moved to 1×PBS and stored at 4° C. until used for staining. Prior to staining, slices were mounted on slides and briefly dried to adhere.
Antibody staining was performed as follows: slides were first incubated in an antigen retrieval and permeabilization buffer (0.05% Triton X-100, 50 μM digitonin, 10 mM Tris-HCl, 1 mM EDTA, pH 9.0) at 60° C. overnight in a white-light LED illuminated box (to promote photobleaching of tissue autofluorescence). To reduce formaldehyde induced background fluorescence, slides were treated with sodium borohydride in ice cold PBS, added at 1 mg/mL immediately before incubation, on ice for 30 min, then moved to 10 mM glycine 1×PBS, pH 7.4, for 5 min at room temperature. Lipid background fluorescence was then blocked by incubating slides in 0.2 μm filtered Sudan Black B solution (5 mg/mL in 70% ethanol) overnight at room temperature. Slides were then rinsed twice, 5 min each, in 1×PBS. Excess fluid was wiped from the slide, and the tissue was circled using Liquid Blocker PAP pen (Fisher Scientific, NC9827128) to hold staining solutions. Slides were blocked for 15 min at room temperature in 1×PBS with 10% rabbit serum (Gibco, 16120-099) then stained overnight at 4° C. in a mixture of rabbit anti-IBA1-fluorochrome 635 conjugated (WAKO 013-26471) at 1:300, mouse anti-GFAP, Alexa555 conjugated (Cell Signaling, 3656S) at 1:300, and DAPI (Sigma, D9542) at 1 μg/mL. […]

The test system of series [2] is Ndufs4(KO) mice. The series can be described thus: Isoflurane induced hyperlactemia assay. The note with it: 0.4% isoflurane for 30 min, P50, 300 mg/kg/d. As to the method: Isoflurane induced hyperlactemia assays. All of these experiments were performed at P50. Mice were subject to normal daily monitoring (see survival studies) up until P50. At P50, baseline blood glucose, lactate, and […] (β-HB) levels were measured using point-of-care meters using the tail-prick method, as described. Mice were then immediately exposed to 0.4% isoflurane or carrier gas only (100% oxygen) for 30 min. At the 30 minutes, blood glucose, lactate, and β-HB were measured again.

Series [3] concerns Ndufs4(KO) mice. The series can be described thus: Minimum Alveolar Concentration (MAC) of isoflurane associated with anesthesia. To be noted: 300 mg/kg/day, P30 Ndufs4(KO) animals. The source says: In particular embodiments, effective amounts can be evidenced by reduced sensitivity to volatile anesthetics. Sensitivity to volatile anesthetics can be determined by measuring the minimum alveolar concentration (MAC). MAC provides a correlation between the dose of an anesthetic and immobility. (Lobo et al. (2020) StatPearls, World Wide Web at ncbi.nlm.nih.gov/books/NBK532974/). […] MAC can be expressed as volumes percent of alveolar (end-tidal) gas at one atmosphere pressure at sea level (i.e., 760 mm Hg). In particular embodiments, volatile anesthetics can include nitrous oxide, isoflurane, desflurane, halothane, and sevoflurane. Mice can be exposed to an anesthetic by using a vaporizer at a particular flow rate (e.g., 3-4 liters/min) through a humidifier in-line. […] In particular embodiments, sensitivity to volatile anesthetics can be reduced in a subject administered a composition including a therapeutically effective amount of an inhibitor of the disclosure, as compared to sensitivity to volatile anesthetics in the subject not administered the composition, as measured by a relevant test such as MAC.
To test whether leukocyte depletion might impact VA hypersensitivity, the Minimum Alveolar Concentration (MAC) of isoflurane associated with anesthesia in control and 300 mg/kg/day pexidartinib treated Ndufs4(KO) animals was assessed (see Experimental Methods in Example 1 for details). […]

Series [4] relates to control and Ndufs4(KO) animals. Kind of series: Observation of coat color under treatment. To be noted: higher doses (of 100, 200, 300 mg/kg/day) in chow. As to the method:
To directly test this model, Ndufs4(KO) and control animals were treated with 100, 200, or 300 mg/kg/day pexidartinib in normal mouse chow (dosing is approximated based on food consumption, see Experimental Methods in Example 1).

Turning to `FC(F)(F)c1ccc(CNc2ccc(Cc3c[nH]c4ncc(Cl)cc34)cn2)cn1` [pexidartinib, 5-[(5-chloro-1H-pyrrolo[2,3-b]pyridin-3-yl)methyl]-N-[[6-(trifluoromethyl)pyridin-3-yl]methyl]pyridin-2-amine], the “gliosis (microgliosis and astrocytosis) at CNS lesion sites” value in series [1] is on record as “completely prevented”. Also, the “brainstem CNS lesions” value in series [1] (immunohistochemistry) is recorded as “complete (as detected by immunohistochemistry) prevention”. For the same molecule, the “cerebellar CNS lesions” value in series [1] (immunohistochemistry) is given as “complete (as detected by immunohistochemistry) prevention”. Besides, the “blood lactate spike after isoflurane exposure” value in the series on Ndufs4(KO) mice [2] is “fully suppressed this lactate spike”. Further, the “hypersensitivity to sedation by isoflurane (MAC)” value in the series on Ndufs4(KO) mice [3] was “modest, but statistically significant, attenuation”. The figures for the coat/fur color result in series [4] and in series [4] (listed as Pexidartinib) were “turns fur white; also recorded: change in mouse coat color” and “caused animal fur to whiten”, respectively.
